One series has as its target recombinant PI3 kinase δ (Homo sapiens (Human), UniProt O00329). The experiment in a line: Enzyme Inhibition Assay (HTRF PI3K enzyme assay, TR-FRET). The class given is biochemical. The essentials:
(§1)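 TR-FRET readout after 15-18 hr at RT with biotinylated PIP3, GST-tagged GRP1 PH domain and europium/APC fluorophores; product PIP3 displaces the tracer and lowers the signal. Beforehand, compound and PIP2 were reacted for 2 hr at RT with human recombinant PI3Kα, δ or γ.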
On the technique in general: In TR-FRET formats the signal depends on donor and acceptor labels being close together.

Another series addresses recombinant PI3 kinase γ (Homo sapiens (Human), UniProt P48736). The description is as above. The class given is biochemical. Summed up: as §1
A further series concerns the target recombinant PI3 kinase α (Homo sapiens (Human), UniProt P42336). The description is as above. The class given is biochemical. Summed up:
as §1

Series [1] deals with H2O2 induced pAkt in D-U937 cells. The experiment in a line: PI3Kδ Cell Based Assay (H2O2 induced pAkt). Conditions: Homo sapiens. The essentials: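 Read-out is the pAkt/total Akt signal ratio, measured with anti-pAkt and anti-pan-Akt antibodies after H2O2 stimulation. Cells were U937 monocytes given PMA (100 ng/mL) for 48 to 72 hr. IC50 values fitted from compound serial dilutions.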

Series [2] concerns PMA-differentiated U937 cells. The experiment in a line: MTT Assay (cell viability). The class given is cell-based, Human. Conditions: percentage loss of cell viability; for Cell Viability MTT Assay in D-U937 cells at 4 hr: 4 hr in 5% FCS; for Cell Viability MTT Assay in D-U937 cells at 24 hr: 24 hr in 10% FCS. Summed up: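 Differentiated U937 cells treated with compound for 4 hr (5% FCS) or 24 hr (10% FCS), then given MTT for 1 hr; formazan dissolved in DMSO and absorbance read at 550 nm. Viability loss expressed as % versus 0.5% DMSO vehicle.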

A short description of series [3]: Stereochemical analysis by chiral stationary phase HPLC (atropisomerism). Conditions: for atropisomerism by chiral stationary phase HPLC: chiral stationary phase HPLC (16 different conditions for the examples). Format: physicochemical. The protocol: Each of these mobile phase are compatible with the column packings referred to above, providing sixteen different solvent and stationary phase permutations. Modifiers such as triethylamine (0.1%), formic acid (0.1%) may be added to improve the resolution
Semi-preparative Chiral Stationary Phase LC-UV was performed on a Gilson preparative modular system using a Daicel Chiralpak AD semi-prep column ([…], 20×250 mm) and a flow rate of 18 mL/min eluting with an isocratic method over 20 min using […] heptane:IPA and 0.1% triethylamine employing an injection volume of 1.0 mL.

Setting [4] is: activity range, read-out: PI3 Kinase Inhibition IC50 values at stated Isozyme δ.
Where [5] appears, read: activity range, read-out: PI3 Kinase Inhibition IC50 values at stated Isozyme γ.
[6] abbreviates: activity range, read-out: PI3 Kinase Inhibition IC50 values at stated Isozyme α.
The mark [7] stands for this setting: dU937, read-out: Cellular Activity IC50 values (H2O2 induced pAkt D-U937 Cells).
[8] abbreviates: dU937, activity range, D-U937 cells, read-out: Cellular Activity IC50 values (H2O2 induced pAkt D-U937 Cells).

Read-outs that look alike come from different tables or passages of the source.

Chain of recombinant PI3 kinase γ (P48736 whole entry): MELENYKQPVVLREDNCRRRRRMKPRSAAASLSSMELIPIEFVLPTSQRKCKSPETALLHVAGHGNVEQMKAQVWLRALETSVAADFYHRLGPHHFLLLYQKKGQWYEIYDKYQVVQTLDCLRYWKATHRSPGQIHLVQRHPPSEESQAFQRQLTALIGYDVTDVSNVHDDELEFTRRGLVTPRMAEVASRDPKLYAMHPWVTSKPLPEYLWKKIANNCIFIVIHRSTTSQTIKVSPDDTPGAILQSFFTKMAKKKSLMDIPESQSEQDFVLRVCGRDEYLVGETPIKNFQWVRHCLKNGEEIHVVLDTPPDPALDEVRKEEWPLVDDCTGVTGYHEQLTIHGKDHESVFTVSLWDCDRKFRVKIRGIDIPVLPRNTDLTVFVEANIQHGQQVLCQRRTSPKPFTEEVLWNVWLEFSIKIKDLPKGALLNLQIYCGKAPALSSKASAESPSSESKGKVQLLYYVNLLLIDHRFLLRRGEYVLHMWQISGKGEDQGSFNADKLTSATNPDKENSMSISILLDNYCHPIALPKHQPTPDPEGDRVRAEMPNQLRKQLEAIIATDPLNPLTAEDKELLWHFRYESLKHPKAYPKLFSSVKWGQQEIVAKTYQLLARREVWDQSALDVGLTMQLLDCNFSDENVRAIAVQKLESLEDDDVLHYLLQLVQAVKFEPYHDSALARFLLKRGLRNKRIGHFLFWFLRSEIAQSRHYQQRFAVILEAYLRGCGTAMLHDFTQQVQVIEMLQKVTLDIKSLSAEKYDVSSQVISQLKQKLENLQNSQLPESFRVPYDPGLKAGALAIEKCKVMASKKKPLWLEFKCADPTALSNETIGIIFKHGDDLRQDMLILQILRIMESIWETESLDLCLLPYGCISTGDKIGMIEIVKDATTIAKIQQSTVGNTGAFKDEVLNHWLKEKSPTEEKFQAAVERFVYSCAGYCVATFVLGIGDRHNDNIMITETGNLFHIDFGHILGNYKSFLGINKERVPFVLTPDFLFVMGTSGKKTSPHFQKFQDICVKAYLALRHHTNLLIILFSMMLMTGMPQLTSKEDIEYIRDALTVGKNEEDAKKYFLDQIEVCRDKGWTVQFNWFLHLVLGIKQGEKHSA
Chain of recombinant PI3 kinase δ (O00329 whole entry, the tested form may be a part): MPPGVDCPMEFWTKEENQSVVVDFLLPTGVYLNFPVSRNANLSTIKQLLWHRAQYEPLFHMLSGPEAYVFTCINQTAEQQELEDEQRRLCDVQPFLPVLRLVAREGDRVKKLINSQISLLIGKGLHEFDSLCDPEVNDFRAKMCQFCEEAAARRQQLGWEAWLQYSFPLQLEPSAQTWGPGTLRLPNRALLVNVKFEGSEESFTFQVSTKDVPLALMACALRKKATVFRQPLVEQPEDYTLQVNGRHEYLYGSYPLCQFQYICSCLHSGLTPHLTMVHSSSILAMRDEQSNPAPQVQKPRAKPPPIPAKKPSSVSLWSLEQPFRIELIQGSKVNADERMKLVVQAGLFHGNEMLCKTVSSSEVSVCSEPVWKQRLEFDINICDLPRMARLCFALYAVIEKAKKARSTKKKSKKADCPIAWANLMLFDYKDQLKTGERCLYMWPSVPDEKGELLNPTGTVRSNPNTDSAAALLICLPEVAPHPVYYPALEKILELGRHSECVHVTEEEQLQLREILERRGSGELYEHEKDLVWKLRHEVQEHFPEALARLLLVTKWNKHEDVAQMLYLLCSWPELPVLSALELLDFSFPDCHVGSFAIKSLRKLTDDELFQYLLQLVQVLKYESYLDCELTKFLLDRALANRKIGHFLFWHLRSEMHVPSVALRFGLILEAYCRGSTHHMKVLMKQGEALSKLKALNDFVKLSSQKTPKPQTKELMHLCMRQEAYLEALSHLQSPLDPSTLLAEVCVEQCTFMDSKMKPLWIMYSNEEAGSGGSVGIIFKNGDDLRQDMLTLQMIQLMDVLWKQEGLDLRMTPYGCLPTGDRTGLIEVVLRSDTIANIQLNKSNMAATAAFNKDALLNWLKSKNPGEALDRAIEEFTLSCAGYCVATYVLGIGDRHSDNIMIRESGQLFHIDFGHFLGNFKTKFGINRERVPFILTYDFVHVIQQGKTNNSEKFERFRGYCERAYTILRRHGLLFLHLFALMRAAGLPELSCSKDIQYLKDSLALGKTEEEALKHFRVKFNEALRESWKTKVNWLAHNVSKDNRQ
Chain of recombinant PI3 kinase δ (P27986 whole entry partner, the tested form may be a part): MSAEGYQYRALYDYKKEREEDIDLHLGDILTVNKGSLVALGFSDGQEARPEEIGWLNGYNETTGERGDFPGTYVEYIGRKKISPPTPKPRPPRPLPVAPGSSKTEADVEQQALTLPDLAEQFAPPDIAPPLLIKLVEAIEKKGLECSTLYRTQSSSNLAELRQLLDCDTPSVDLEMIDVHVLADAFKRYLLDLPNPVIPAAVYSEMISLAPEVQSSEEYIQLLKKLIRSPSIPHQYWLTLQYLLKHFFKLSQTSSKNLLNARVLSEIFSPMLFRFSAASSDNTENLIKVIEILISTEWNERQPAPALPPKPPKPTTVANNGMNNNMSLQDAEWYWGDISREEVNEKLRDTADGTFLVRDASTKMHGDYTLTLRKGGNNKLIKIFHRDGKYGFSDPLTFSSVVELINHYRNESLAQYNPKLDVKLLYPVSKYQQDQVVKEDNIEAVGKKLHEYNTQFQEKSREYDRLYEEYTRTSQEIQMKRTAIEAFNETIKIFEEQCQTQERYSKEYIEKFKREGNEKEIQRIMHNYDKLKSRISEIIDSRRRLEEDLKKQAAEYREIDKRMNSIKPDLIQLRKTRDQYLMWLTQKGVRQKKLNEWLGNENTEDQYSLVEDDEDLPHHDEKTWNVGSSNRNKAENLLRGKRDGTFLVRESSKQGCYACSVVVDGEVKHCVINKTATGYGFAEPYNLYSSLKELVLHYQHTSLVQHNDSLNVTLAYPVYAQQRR
Chain of recombinant PI3 kinase α (P42336 whole entry): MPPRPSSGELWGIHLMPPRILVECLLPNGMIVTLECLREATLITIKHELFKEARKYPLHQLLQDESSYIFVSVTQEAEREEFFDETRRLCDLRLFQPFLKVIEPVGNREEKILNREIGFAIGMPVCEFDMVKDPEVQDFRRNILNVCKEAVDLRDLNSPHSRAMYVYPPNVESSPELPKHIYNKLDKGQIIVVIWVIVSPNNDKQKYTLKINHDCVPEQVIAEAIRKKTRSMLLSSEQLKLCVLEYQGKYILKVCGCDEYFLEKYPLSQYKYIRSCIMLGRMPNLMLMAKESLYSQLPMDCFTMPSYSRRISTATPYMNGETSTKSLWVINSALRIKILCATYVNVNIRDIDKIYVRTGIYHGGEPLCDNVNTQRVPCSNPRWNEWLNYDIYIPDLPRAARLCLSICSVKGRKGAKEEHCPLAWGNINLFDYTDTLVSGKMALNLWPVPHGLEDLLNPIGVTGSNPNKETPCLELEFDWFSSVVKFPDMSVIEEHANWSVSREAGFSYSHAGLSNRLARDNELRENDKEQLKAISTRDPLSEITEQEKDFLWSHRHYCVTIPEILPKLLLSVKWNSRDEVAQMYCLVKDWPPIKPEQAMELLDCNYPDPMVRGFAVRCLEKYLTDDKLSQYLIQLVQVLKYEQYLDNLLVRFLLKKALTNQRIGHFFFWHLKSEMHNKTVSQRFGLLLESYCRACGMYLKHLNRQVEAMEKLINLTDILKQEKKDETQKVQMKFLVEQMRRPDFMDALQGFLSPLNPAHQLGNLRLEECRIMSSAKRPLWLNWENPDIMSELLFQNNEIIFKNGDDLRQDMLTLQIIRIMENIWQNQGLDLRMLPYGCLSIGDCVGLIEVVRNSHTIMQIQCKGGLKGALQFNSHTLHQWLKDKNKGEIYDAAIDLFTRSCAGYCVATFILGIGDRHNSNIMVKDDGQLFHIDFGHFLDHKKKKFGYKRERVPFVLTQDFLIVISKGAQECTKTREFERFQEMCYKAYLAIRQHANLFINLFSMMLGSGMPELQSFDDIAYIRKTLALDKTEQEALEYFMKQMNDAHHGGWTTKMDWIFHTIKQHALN
Chain of recombinant PI3 kinase α (P27986 whole entry partner): as the sequence (P27986 whole entry partner, the tested form may be a part) above

Consider `C#Cc1cccc2nc(Cn3nc(-c4cccc(O)c4)c4c(N)ncnc43)n(Cc3ccccc3F)c(=O)c12` [Example 12, 2-((4-Amino-3-(3-hydroxyphenyl)-1H-pyrazolo[3,4-d]pyrimidin-1-yl)methyl)-5-ethynyl-3-(2-fluorobenzyl) quinazolin-4(3H)-one], for which the concentration for half-maximal inhibition (IC50) (in general, the concentration that inhibits the measured activity by half) at recombinant PI3 kinase δ (setting [4]) was below 50 nM; at recombinant PI3 kinase γ (setting [5]), 50 to 1000 nM; on recombinant PI3 kinase α (setting [6]), 50 to 1000 nM; in series [1] (setting [7]), below 10 nM. In series [2], the “Cell Viability MTT Assay in D-U937 cells at 4 hr” value is reported as “+ (+ >30%)”. In series [2], the “Cell Viability MTT Assay in D-U937 cells at 24 hr” value was “− (− <30%)”. In series [3], the “atropisomerism by chiral stationary phase HPLC” value (“atropisomerism” below) is recorded as “no evidence for atropisomerism was observed”.
In the case of `C#Cc1cccc2nc(Cn3nc(-c4ccc(O)cc4)c4c(N)ncnc43)n(Cc3ccccc3Cl)c(=O)c12` [Example 9, 2-((4-Amino-3-(4-hydroxyphenyl)-1H-pyrazolo[3,4-d]pyrimidin-1-yl)methyl)-3-(2-chlorobenzyl)-5-ethynyl quinazolin-4(3H)-one], the concentration for half-maximal inhibition (IC50) at recombinant PI3 kinase δ (setting [4]) was below 50 nM; at recombinant PI3 kinase γ (setting [5]), 50 to 1000 nM; on recombinant PI3 kinase α (setting [6]) it was 50 to 1000 nM; in series [1] (setting [7]), below 10 nM. Besides, in series [2], the “Cell Viability MTT Assay in D-U937 cells at 4 hr” value is given as “− (− <30%)”. Moreover, the “Cell Viability MTT Assay in D-U937 cells at 24 hr” value in series [2] is given as “− (− <30%)”. Further, the “atropisomerism” value in series [3] is given as “no evidence for atropisomerism was observed”.
As to `C#Cc1cccc2nc(Cn3nc(-c4ccc(O)cc4)c4c(N)ncnc43)n(Cc3ccc(S(C)(=O)=O)cc3)c(=O)c12` [Example 20, 2-((4-Amino-3-(4-hydroxyphenyl)-1H-pyrazolo[3,4-d]pyrimidin-1-yl)methyl)-5-ethynyl-3-(4-(methylsulfonyl)benzyl)quinazolin-4(3H)-one], the half-maximal inhibitory concentration (IC50) is below 50 nM at recombinant PI3 kinase δ (setting [4]), 50 to 1000 nM on recombinant PI3 kinase γ (setting [5]), 50 to 1000 nM at recombinant PI3 kinase α (setting [6]) and below 10 nM in series [1] (setting [8]). In addition, the “Cell Viability MTT Assay in D-U937 cells at 4 hr” value in series [2] is on record as “− (− <30%)”. Moreover, in series [2], the “Cell Viability MTT Assay in D-U937 cells at 24 hr” value is “− (− <30%)”. Also, the “atropisomerism” value in series [3] was “no evidence for atropisomerism was observed”.
`C#Cc1cccc2nc(Cn3nc(-c4ccc(O)cc4)c4c(N)ncnc43)n(Cc3cccc(OC)c3)c(=O)c12` [Example 14, 2-((4-Amino-3-(4-hydroxyphenyl)-1H-pyrazolo[3,4-d]pyrimidin-1-yl)methyl)-5-ethynyl-3-(3-methoxybenzyl)quinazolin-4(3H)-one]: the IC50 on recombinant PI3 kinase δ (setting [4]) was below 50 nM; at recombinant PI3 kinase γ (setting [5]), 50 to 1000 nM; at recombinant PI3 kinase α (setting [6]) it was 50 to 1000 nM; in series [1] (setting [8]), below 10 nM. In addition, in series [2], the “Cell Viability MTT Assay in D-U937 cells at 4 hr” value is on record as “− (− <30%)”. In series [2], the “Cell Viability MTT Assay in D-U937 cells at 24 hr” value is recorded as “− (− <30%)”. In addition, the “atropisomerism” value in series [3] is given as “no evidence for atropisomerism was observed”.
Consider `C#Cc1cccc2nc(Cn3nc(-c4cccc(O)c4)c4c(N)ncnc43)n(Cc3ccc(Cl)cc3)c(=O)c12` [Example 25, 2-((4-Amino-3-(3-hydroxyphenyl)-1H-pyrazolo[3,4-d]pyrimidin-1-yl)methyl)-3-(4-chlorobenzyl)-5-ethynylquinazolin-4(3H)-one], for which the half-maximal inhibitory concentration (IC50) was below 50 nM at recombinant PI3 kinase δ (setting [4]), 50 to 1000 nM at recombinant PI3 kinase γ (setting [5]), 50 to 1000 nM at recombinant PI3 kinase α (setting [6]) and below 10 nM in series [1] (setting [8]). Also, in series [2], the “Cell Viability MTT Assay in D-U937 cells at 4 hr” value is “− (− <30%)”. Also, the “Cell Viability MTT Assay in D-U937 cells at 24 hr” value in series [2] was “− (− <30%)”. For the same compound, the “atropisomerism” value in series [3] is “no evidence for atropisomerism was observed”.
`C#Cc1cccc2nc(Cn3nc(-c4cccc(O)c4)c4c(N)ncnc43)n(Cc3cccc(Cl)c3)c(=O)c12` [Example 10, 2-((4-Amino-3-(3-hydroxyphenyl)-1H-pyrazolo[3,4-d]pyrimidin-1-yl)methyl)-3-(3-chlorobenzyl)-5-ethynyl quinazolin-4(3H)-one]: the IC50 at recombinant PI3 kinase δ (setting [4]) was below 50 nM; at recombinant PI3 kinase γ (setting [5]) it was 50 to 1000 nM; at recombinant PI3 kinase α (setting [6]) it was 50 to 1000 nM; in series [1] (setting [7]), below 10 nM. Also, the “Cell Viability MTT Assay in D-U937 cells at 4 hr” value in series [2] is listed as “− (− <30%)”. Further, the “Cell Viability MTT Assay in D-U937 cells at 24 hr” value in series [2] is recorded as “− (− <30%)”. Besides, the “atropisomerism” value in series [3] is listed as “no evidence for atropisomerism was observed”.
Turning to `Cc1ccccc1-n1c(Cn2nc(-c3cccc(O)c3)c3c(N)ncnc32)nc2cccc(C)c2c1=O` [PIK294, reference compound], the “interconversion of separated atropisomers” value in series [3] (ambient and elevated temperatures, over several days) is listed as “no detectable signs of interconversion”. Moreover, in series [3], the “atropisomerism” value was 1:1 mixture of enantiomeric atropisomers.
Regarding `CC(C)NC(=O)CCCC#Cc1cccc2nc(Cn3nc(-c4ccc(O)cc4)c4c(N)ncnc43)n(Cc3ccccc3Cl)c(=O)c12` [Example 86, 6-(2-((4-Amino-3-(4-hydroxyphenyl)-1H-pyrazolo[3,4-d]pyrimidin-1-yl)methyl)-3-(2-chlorobenzyl)-4-oxo-3,4-dihydroquinazolin-5-yl)-N-isopropylhex-5-ynamide], the IC50 at recombinant PI3 kinase δ (setting [4]) was below 50 nM; on recombinant PI3 kinase δ (read-out: PI3 Kinase Inhibition IC50 values at stated Isozyme (nM) δ), 36 nM; at recombinant PI3 kinase γ (setting [5]) it was below 50 nM; at recombinant PI3 kinase γ (read-out: PI3 Kinase Inhibition IC50 values at stated Isozyme (nM) γ) it was 22 nM; at recombinant PI3 kinase α (setting [6]), below 50 nM; at recombinant PI3 kinase α (read-out: PI3 Kinase Inhibition IC50 values at stated Isozyme (nM) α) it was 27 nM. Besides, the IC50 in series [1] (setting [8]) was below 10 nM; in series [1] (dU937, read-out: Cellular Activity IC50 values (H2O2 induced pAkt (nM) D-U937 Cells)), 0.41 nM. The “Cell Viability MTT Assay in D-U937 cells at 4 hr” value in series [2] was “− (− <30%)”. Moreover, the “Cell Viability MTT Assay in D-U937 cells at 24 hr” value in series [2] is given as “− (− <30%)”.
Consider `COCC#Cc1cccc2nc(Cn3nc(-c4ccc(O)cc4)c4c(N)ncnc43)n(Cc3ccccc3Cl)c(=O)c12` [Example 28, 2-((4-Amino-3-(4-hydroxyphenyl)-1H-pyrazolo[3,4-d]pyrimidin-1-yl)methyl)-3-(2-chlorobenzyl)-5-(3-methoxyprop-1-ynyl)quinazolin-4(3H)-one], for which the half-maximal inhibitory concentration (IC50) on recombinant PI3 kinase δ (setting [4]) was below 50 nM; at recombinant PI3 kinase γ (setting [5]), 50 to 1000 nM; on recombinant PI3 kinase α (setting [6]) it was 50 to 1000 nM; in series [1] (setting [8]) it was below 10 nM. Moreover, the “Cell Viability MTT Assay in D-U937 cells at 4 hr” value in series [2] is recorded as “− (− <30%)”. Further, the “Cell Viability MTT Assay in D-U937 cells at 24 hr” value in series [2] is listed as “− (− <30%)”.
Turning to `C#Cc1cccc2nc(Cn3nc(-c4ccc(F)c(O)c4)c4c(N)ncnc43)n(Cc3ccccc3Cl)c(=O)c12` [Example 51, 2-((4-Amino-3-(4-fluoro-3-hydroxyphenyl)-1H-pyrazolo [3,4-d]pyrimidin-1-yl)methyl)-3-(2-chlorobenzyl)-5-ethynylquinazolin-4(3H)-one], the concentration for half-maximal inhibition (IC50) was below 50 nM on recombinant PI3 kinase δ (setting [4]), 50 to 1000 nM at recombinant PI3 kinase γ (setting [5]), 50 to 1000 nM on recombinant PI3 kinase α (setting [6]) and below 10 nM in series [1] (setting [8]). For the same compound, the “Cell Viability MTT Assay in D-U937 cells at 4 hr” value in series [2] is given as “− (− <30%)”. For the same compound, the “Cell Viability MTT Assay in D-U937 cells at 24 hr” value in series [2] is on record as “− (− <30%)”.
With `C#Cc1cccc2nc(Cn3nc(-c4ccc(O)c(F)c4)c4c(N)ncnc43)n(Cc3ccccc3Cl)c(=O)c12` [Example 36, 2-((4-Amino-3-(3-fluoro-4-hydroxyphenyl)-1H-pyrazolo[3,4-d]pyrimidin-1-yl)methyl)-3-(2-chlorobenzyl)-5-ethynylquinazolin-4(3H)-one], the half-maximal inhibitory concentration (IC50) on recombinant PI3 kinase δ (setting [4]) was below 50 nM; at recombinant PI3 kinase γ (setting [5]) it was above 1000 nM; on recombinant PI3 kinase α (setting [6]), 50 to 1000 nM; in series [1] (setting [8]) it was below 10 nM. The “Cell Viability MTT Assay in D-U937 cells at 4 hr” value in series [2] is recorded as “− (− <30%)”. Moreover, in series [2], the “Cell Viability MTT Assay in D-U937 cells at 24 hr” value is reported as “− (− <30%)”.

The values above are taken from patent publication US9321773B2, “Compounds” (Respivert Ltd, priority 2009, dated 2016).
